The values below come from patent EP4678638A1, “NEW E3 UBIQUITIN LIGASE LIGAND, PROTEIN DEGRADATION AGENT AND USE THEREOF” (priority 2023, dated 2024).

The assay addresses T1, human Cereblon WT GST-tagged protein (Homo sapiens, UniProt Q96SW2).
T1 construct: purchased CISBIO 64BDCRBNPEH
Briefly: CRBN binding, HTRF (CEREBLON BINDING kit). To be noted: Table II-2, CRBN binding screening, HTRF; for inhibition at 0.5 µM: read-out: Inhibition rate (%) at 0.5µM; for inhibition at 2 µM: read-out: Inhibition rate (%) at 2 µM. As for the experimental part:
The CEREBLON BINDING kits (specification: 10,000 tests; product number: Catalog # 64BDCRBNPEH; CISBIO company) was used to determine the CRBN binding ability of the compounds to be tested through a HTRF method (homogeneous time-resolved fluorescence). The specific methods are as follows: • 1. […] Then, 2.5 µL of human Cereblon WT GST-tagged protein solution was added to each well. Finally, 5 µL of the thoroughly mixed Thalidomide-Re reagent and GST Eu antibody working solution were added to each of the aforementioned wells. […] The blank control wells were sequentially added with 2.5 µL of diluent #9 (1X) solution, 2.5 µL of binding buffer, and 5 µL of thoroughly mixed Thalidomide-Re reagent and GST Eu antibody working solution. • 4. After sealing and incubating the solutions in the aforementioned wells at room temperature for 3 hours, the […] at emission wavelengths of 620 nm and 665 nm were detected by the HTRF method using a Spark microplate reader (V3.1 SP1).
(In general: TR-FRET usually uses a lanthanide donor and a delayed reading to cut background.)

T1 sequence (Q96SW2 whole entry): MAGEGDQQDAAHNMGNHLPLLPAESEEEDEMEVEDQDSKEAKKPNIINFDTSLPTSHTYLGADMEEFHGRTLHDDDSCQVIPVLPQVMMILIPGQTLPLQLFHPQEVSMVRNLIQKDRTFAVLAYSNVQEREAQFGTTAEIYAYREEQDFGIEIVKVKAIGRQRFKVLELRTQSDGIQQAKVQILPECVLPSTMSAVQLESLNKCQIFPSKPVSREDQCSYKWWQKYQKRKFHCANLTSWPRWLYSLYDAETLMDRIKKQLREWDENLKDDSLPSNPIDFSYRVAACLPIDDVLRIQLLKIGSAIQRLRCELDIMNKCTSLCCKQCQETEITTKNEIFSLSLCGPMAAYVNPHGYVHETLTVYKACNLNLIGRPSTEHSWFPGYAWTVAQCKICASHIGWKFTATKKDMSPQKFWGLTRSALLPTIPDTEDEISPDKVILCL

Take `COc1cc2nn(C3CCN(Cc4cc(C5CCC(=O)NC5=O)cnc4F)CC3)cc2cc1NC(=O)c1cccc(C(F)(F)F)c1` (stereo not shown) [GT-07547, N-(2-(1-((5-(2,6-dioxopiperidin-3-yl)-2-fluoropyridin-3-yl)methyl)piperidin-4-yl)-6-methoxy-2H-indazol-5-yl)-3-(trifluoromethyl)benzamide]: the inhibition at 0.5 µM (at 0.5µM) is 40 to 53%. Also, the inhibition at 2 µM (at 2 µM) is 80 to 100%.

For `CN(C)C(=O)c1cc2cnc(Nc3ccc(N4CCN(Cc5cc(C6CCC(=O)NC6=O)cnc5F)CC4)cn3)nc2n1C1CCCC1` (stereo not shown) [GT-07563, 7-cyclopentyl-2-((5-(4-((5-(2,6-dioxopiperidin-3-yl)-2-fluoropyridin-3-yl)methyl)piperazin-1-yl)pyridin-2-yl)amino)-N,N-dimethyl-7H-pyrrolo[2,3-d]pyrimidine-6-carboxamide], the inhibition at 0.5 µM (at 0.5µM) lay in the range of 20 to 30%. The inhibition at 2 µM (at 2 µM) was 60 to 80%.

For the compound `CC(=O)c1c(C)c2cnc(Nc3ccc(N4CCN(Cc5cc(C6CCC(=O)NC6=O)cnc5F)CC4)cn3)nc2n(C2CCCC2)c1=O` (stereo not shown) [GT-07591, 3-(5-((4-(6-((6-acetyl-8-cyclopentyl-5-methyl-7-oxo-7,8-dihydropyrido[2,3-d]pyrimidin-2-yl)amino)pyridin-3-yl)piperazin-1-yl)methyl)-6-fluoropyridin-3-yl)piperidine-2,6-dione], the inhibition at 0.5 µM (at 0.5µM) was in the range of 20 to 30%. Besides, the inhibition at 2 µM (at 2 µM) was 80 to 100%.

Consider `CC(C)(O)c1cc2nc(C3CCN(Cc4cc(C5CCC(=O)NC5=O)cnc4F)CC3)sc2cc1NC(=O)c1cccc(C(F)(F)F)n1` (stereo not shown) [GT-07621, N-(2-(1-((5-(2,6-dioxopiperidin-3-yl)-2-fluoropyridin-3-yl)methyl)piperidin-4-yl)-5-(2-hydroxypropan-2-yl)benzo[d]thiazol-6-yl)-6-(trifluoromethyl)picolinamide], for which the inhibition at 0.5 µM (at 0.5µM) was 53 to 60%. Moreover, the inhibition at 2 µM (at 2 µM) lay within 60 to 80%.

For the compound `CC(C)(O)c1cc2nc(C3CCN(Cc4cc(C5CCC(=O)NC5=O)cnc4F)CC3)oc2cc1NC(=O)c1cccc(C(F)(F)F)n1` (stereo not shown) [GT-07629, N-(2-(1-((5-(2,6-dioxopiperidin-3-yl)-2-fluoropyridin-3-yl)methyl)piperidin-4-yl)-5-(2-hydroxypropan-2-yl)benzo[d]oxazol-6-yl)-6-(trifluoromethyl)picolinamide], for the setting “at 0.5µM”, the inhibition at 0.5 µM was in the range of 60 to 80%. Besides, where the note is “at 2 µM”, the inhibition at 2 µM was in the range of 80 to 100%.

For the compound `CC(C)(O)c1cc2nc(C3CCN(Cc4cncc(C5CCC(=O)NC5=O)c4)CC3)oc2cc1NC(=O)c1cccc(C(F)(F)F)n1` (stereo not shown) [GT-07630, N-(2-(1-((5-(2,6-dioxopiperidin-3-yl)pyridin-3-yl)methyl)piperidin-4-yl)-5-(2-hydroxypropan-2-yl)benzo[d]oxazol-6-yl)-6-(trifluoromethyl)picolinamide], under “at 0.5µM”, the inhibition at 0.5 µM was in the range of 20 to 30%. In addition, for the setting “at 2 µM”, the inhibition at 2 µM fell in the range of 60 to 80%.

In the case of `CNC(=O)c1ccccc1Nc1cc(Nc2ccc(N3CCC(N(C)Cc4cc(C5CCC(=O)NC5=O)cnc4F)CC3)cc2OC)ncc1C(F)(F)F` (stereo not shown) [GT-07656, 2-((2-((4-(4-(((5-(2,6-dioxopiperidin-3-yl)-2-fluoropyridin-3-yl)methyl)(methyl)amino)piperidin-1-yl)-2-methoxyphenyl)amino)-5-(trifluoromethyl)pyridin-4-yl)amino)-N-methylbenzamide], the inhibition at 0.5 µM (at 0.5µM) was 20 to 30%. The inhibition at 2 µM (at 2 µM) lay in the range of 60 to 80%.

With `CNC(=O)c1ccccc1Nc1cc(Nc2cc(C)c(C3CCN(Cc4ccc(N5CCC(=O)NC5=O)cc4)CC3)cc2OC(C)C)ncc1C(F)(F)F` [GT-07667, 2-((2-((4-(1-(4-(2,4-dioxotetrahydropyrimidin-1(2H)-yl)benzyl)piperidin-4-yl)-2-isopropoxy-5-methylphenyl)amino)-5-(trifluoromethyl)pyridin-4-yl)amino)-N-methylbenzamide], under “at 0.5µM”, the inhibition at 0.5 µM fell in the range of 20 to 30%. The inhibition at 2 µM (at 2 µM) is 53 to 60%.

On to `CNC(=O)c1ccccc1Nc1cc(Nc2cc(C)c(C3CCN(Cc4cccc(N5CCC(=O)NC5=O)c4)CC3)cc2OC(C)C)ncc1C(F)(F)F` [GT-07668, 2-((2-((4-(1-(3-(2,4-dioxotetrahydropyrimidin-1(2H)-yl)benzyl)piperidin-4-yl)-2-isopropoxy-5-methylphenyl)amino)-5-(trifluoromethyl)pyridin-4-yl)amino)-N-methylbenzamide], for which the “Inhibition rate (%) at 0.5µM” value (at 0.5µM) is listed as “a2 (20% < a2 ≤ 30%)”. In addition, the “Inhibition rate (%) at 2 µM” value (at 2 µM) is reported as “a5 (53% < a5 ≤ 60%)”.

In the case of `CNC(=O)c1ccccc1Nc1cc(Nc2cc(C)c(C3CCN(Cc4ccc(N5CCC(=O)NC5=O)cn4)CC3)cc2OC(C)C)ncc1C(F)(F)F` [GT-07669, 2-((2-((4-(1-((5-(2,4-dioxotetrahydropyrimidin-1(2H)-yl)pyridin-2-yl)methyl)piperidin-4-yl)-2-isopropoxy-5-methylphenyl)amino)-5-(trifluoromethyl)pyridin-4-yl)amino)-N-methylbenzamide], where the note is “at 0.5µM”, the inhibition at 0.5 µM lay in the range of 10 to 20%. The inhibition at 2 µM (at 2 µM) fell in the range of 53 to 60%.

Regarding `CNC(=O)c1ccccc1Nc1cc(Nc2cc(C)c(C3CCN(Cc4cc(C5CCC(=O)NC5=O)cnc4F)CC3)cc2OC(C)C)ncc1C(F)(F)F` (stereo not shown) [GT-07675, 2-((2-((4-(1-((5-(2,6-dioxopiperidin-3-yl)-2-fluoropyridin-3-yl)methyl)piperidin-4-yl)-2-isopropoxy-5-methylphenyl)amino)-5-(trifluoromethyl)pyridin-4-yl)amino)-N-methylbenzamide], the inhibition at 0.5 µM (at 0.5µM) fell in the range of 40 to 53%. Also, for the setting “at 2 µM”, the inhibition at 2 µM lay in the range of 60 to 80%.

With `COc1cc(N2CCC(N3CCN(Cc4cc(N5CCC(=O)NC5=O)cnc4F)CC3)CC2)ccc1Nc1ncc(Cl)c(Nc2ccccc2P(C)(C)=O)n1` [GT-07759, 1-(5-((4-(1-(4-((5-chloro-4-((2-(dimethylphosphoryl)phenyl)amino)pyrimidin-2-yl)amino)-3-methoxyphenyl)piperidin-4-yl)piperazin-1-yl)methyl)-6-fluoropyridin-3-yl)dihydropyrimidine-2,4(1H,3H)-dione], under “at 0.5µM”, the inhibition at 0.5 µM was in the range of 30 to 40%. In addition, the inhibition at 2 µM (at 2 µM) is 53 to 60%.

`O=C1CCN(c2cnc(F)c(CN3CCN(c4ccc(-c5cc(F)c6c(c5)C(=O)N(C(CNc5nccs5)c5ncn7c5CCC7)C6)cc4)CC3)c2)C(=O)N1` (stereo not shown) [GT-07760, 1-(5-((4-(4-(2-(1-(6,7-dihydro-5H-pyrrolo[1,2-c]imidazol-1-yl)-2-(thiazol-2-ylamino)ethyl)-7-fluoro-3-oxoisoindolin-5-yl)phenyl)piperazin-1-yl)methyl)-6-fluoropyridin-3-yl)dihydropyrimidine-2,4(1H,3H)-dione]: the inhibition at 0.5 µM (at 0.5µM) was 40 to 53%. Further, the inhibition at 2 µM (at 2 µM) fell in the range of 60 to 80%.

For the compound `O=C1CCN(c2cnc(CN3CCN(c4ccc(-c5cc(F)c6c(c5)C(=O)N(C(C(=O)Nc5nccs5)c5ncn7c5CCC7)C6)cc4)CC3)cn2)C(=O)N1` (stereo not shown) [GT-07761, 2-(6,7-dihydro-5H-pyrrolo[1,2-c]imidazol-1-yl)-2-(6-(4-(4-((5-(2,4-dioxotetrahydropyrimidin-1(2H)-yl)pyrazin-2-yl)methyl)piperazin-1-yl)phenyl)-4-fluoro-1-oxoisoindolin-2-yl)-N-(thiazol-2-yl)acetamide], the inhibition at 0.5 µM (at 0.5µM) lay within 20 to 30%. Further, where the note is “at 2 µM”, the inhibition at 2 µM lay within 53 to 60%.

Usually inhibition stands for the change of the read-out against control, counted positive when it falls.
